Where two headings read alike, the source gives them in different places.
Key:
[1] = molecular target: T1, GST tagged Bclw ΔC29 protein (Homo sapiens, UniProt Q92843); assay: Alphascreen GST competition assay, Bcl-w vs biotinylated Bim BH3-26 peptide; format: binding; conditions: for IC50: read-out: Bcl-wΔ29 IC50
T1 construct: GST tagged Bclw ΔC29 protein
T1 sequence (Q92843 1-164 limits assumed): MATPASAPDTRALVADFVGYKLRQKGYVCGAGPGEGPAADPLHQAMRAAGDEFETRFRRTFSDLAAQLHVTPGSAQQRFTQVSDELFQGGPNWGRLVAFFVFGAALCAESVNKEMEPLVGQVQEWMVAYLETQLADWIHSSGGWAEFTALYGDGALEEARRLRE

[2] = molecular target: T2, GST tagged Bcl-xL ΔC25 protein (Homo sapiens, UniProt Q07817); assay: Alphascreen GST competition assay, Bcl-xL vs biotinylated Bim BH3-26 peptide; conditions: competition with biotinylated Bim BH3-26 peptide (5.0 nM), Bcl-xL 0.6 nM, n.b. = not binding in the assay conditions; for IC50: read-out: Bcl-xLΔ25 IC50
T2 construct: GST tagged Bcl-xL ΔC25 protein

GST tagged Mcl-1 protein = GST tagged Mcl-1 protein (Homo sapiens, UniProt Q07820); assay: Alphascreen GST competition assay, Mcl-1 vs biotinylated Bak BH3 peptide; conditions: competition with biotinylated Bak BH3 peptide (4.0 nM), Mcl-1 0.4 nM; n.b. = not binding in the assay conditions
[3] = footnote a: tested in a separate experiment
[4] = competition with biotinylated Bim BH3-26 peptide (3.0 nM), Bcl-w 0.05 nM, n.b. = not binding in the assay conditions

T2 sequence (Q07817 1-208 limits assumed): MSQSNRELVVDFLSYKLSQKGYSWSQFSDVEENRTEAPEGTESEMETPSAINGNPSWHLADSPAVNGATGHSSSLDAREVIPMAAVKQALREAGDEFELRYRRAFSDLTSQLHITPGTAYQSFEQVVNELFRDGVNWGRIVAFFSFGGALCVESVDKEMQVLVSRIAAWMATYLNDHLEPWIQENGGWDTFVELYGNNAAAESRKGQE
Sequence of GST tagged Mcl-1 protein (Q07820 whole entry): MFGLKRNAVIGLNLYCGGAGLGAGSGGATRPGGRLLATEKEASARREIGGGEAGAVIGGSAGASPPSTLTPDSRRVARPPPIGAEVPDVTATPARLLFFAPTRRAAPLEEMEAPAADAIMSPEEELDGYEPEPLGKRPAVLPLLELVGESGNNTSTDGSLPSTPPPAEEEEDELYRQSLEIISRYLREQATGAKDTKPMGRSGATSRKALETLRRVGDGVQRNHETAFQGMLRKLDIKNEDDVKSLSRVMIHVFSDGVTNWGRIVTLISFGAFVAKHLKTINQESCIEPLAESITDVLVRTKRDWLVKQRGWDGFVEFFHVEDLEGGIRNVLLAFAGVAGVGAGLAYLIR

Structure (SMILES): O=C(O)[C@H](CSCc1ccccc1)NC(=O)N(CC1CCCCC1)C(=O)c1cccc(-c2ccccc2)c1 [(9)]
- IC50 [1, 3]: 14 µM

Structure (SMILES): O=C(O)[C@H](CSCc1ccccc1)NC(=O)N(C(=O)c1cccc(-c2ccccc2)c1)C1CCCCC1 [(10)]
- IC50 [1, 3]: 26 µM

Structure (SMILES): CC(C)CCN(C(=O)N[C@@H](CSCc1ccccc1)C(=O)O)C(=O)c1ccc(-c2ccccc2)cc1 [(42)]
- IC50 [1, 4]: 49 µM

Structure (SMILES): CCCN(C(=O)NCC(=O)O)C(=O)c1cccc(-c2ccccc2)c1 [(71)]
- Bcl-wΔ29 IC50 (μM) [1, 4]: n.b.^b

Structure (SMILES): O=C([C@H](CSCc1ccccc1)NC(=O)N(Cc1cccc2ccccc12)C(=O)c1cccc(-c2ccc(F)cc2)c1)N1CCOCC1 [(72)]
- Bcl-wΔ29 IC50 (μM) [1, 4]: n.b.^b

Structure (SMILES): O=C(O)[C@H](CSCc1ccccc1)NC(=O)N(Cc1ccc(Cl)c(Cl)c1)C(=O)c1ccc(-c2ccccc2)cc1 [(85)]
- Bcl-xLΔ25 IC50 (μM) [2]: n.b.^b

Structure (SMILES): CCCN(C(=O)N[C@@H](CSCc1ccccc1)C(=O)O)C(=O)c1ccc(/C=C/c2ccccc2)cc1 [(86)]
- Mcl-1 IC50 (μM) (GST tagged Mcl-1 protein): n.b.^b

Structure (SMILES): CCCN(C(=O)N[C@@H](CSCc1ccccc1)C(=O)O)C(=O)c1cccc(/C=C/c2ccccc2)c1 [(87)]
- IC50 [2]: 151 µM
- IC50 [1, 4]: 99 µM
- IC50 (GST tagged Mcl-1 protein): 161 µM

Structure (SMILES): CCCN(C(=O)N[C@@H](CSCc1ccccc1)C(=O)O)C(=O)c1cccc(CCc2ccccc2)c1 [(88)]
- IC50 [2]: 51 µM
- IC50 [1, 4]: 49 µM
- IC50 (GST tagged Mcl-1 protein): 154 µM

Structure (SMILES): CCCN(C(=O)N[C@@H](CSC(C)C)C(=O)O)C(=O)c1cccc(C#Cc2ccccc2)c1 [(92)]
- Mcl-1 IC50 (μM) (GST tagged Mcl-1 protein): n.b.^b

Structure (SMILES): CCCN(C(=O)N[C@@H](CSCCCc1ccccc1)C(=O)O)C(=O)c1cccc(C#Cc2ccccc2)c1 [(95)]
- IC50 [2]: 73 µM
- IC50 [1, 4]: 35 µM
- IC50 (GST tagged Mcl-1 protein): 94 µM

Structure (SMILES): CCCN(C(=O)CCCc1ccccc1)C(=O)N[C@@H](CSCc1ccccc1)C(=O)O [(106)]
- IC50 [2]: 182 µM
- IC50 [1, 4]: 102 µM
- IC50 (GST tagged Mcl-1 protein): 251 µM

Structure (SMILES): CCCN(C(=O)N[C@@H](CSCc1ccc(OC)cc1)C(=O)O)C(=O)c1cccc(C#Cc2ccccc2)c1 [(115)]
- IC50 [2]: 32 µM

Structure (SMILES): CCCN(C(=O)N[C@@H](CSCC(C)CC)C(=O)O)C(=O)c1cccc(C#Cc2ccccc2)c1 (stereo partly shown) [(125)]
- IC50 [2]: 44 µM

Structure (SMILES): CCCN(C(=O)N[C@@H](CSCc1ccccc1)C(=O)O)C(=O)c1cccc(C#Cc2ccc(Br)cc2)c1 [(134)]
- IC50 [2]: 51 µM
- IC50 (GST tagged Mcl-1 protein): 181 µM

Structure (SMILES): CCCN(C(=O)N[C@@H](CSCC(C)C)C(=O)O)C(=O)c1cccc(C#Cc2cccc(F)c2)c1 [(140)]
- Mcl-1 IC50 (μM) (GST tagged Mcl-1 protein): n.b.^b

Structure (SMILES): CCCN(C(=O)N[C@@H](CSCC(C)C)C(=O)O)C(=O)c1cccc(C#Cc2ccccc2OC)c1 [(146)]
- Mcl-1 IC50 (μM) (GST tagged Mcl-1 protein): n.b.^b

Structure (SMILES): CCCN(C(=O)N[C@@H](CSCC(C)C)C(=O)O)C(=O)c1cccc(C#Cc2ccncc2)c1 [(150)]
- Bcl-xLΔ25 IC50 (μM) [2]: n.b.^b

Structure (SMILES): CCCN(C(=O)N[C@@H](CSCC(C)C)C(=O)NS(=O)(=O)c1cccc(-c2ccccc2)c1)C(=O)c1cccc(C#Cc2ccccc2)c1 [(155)]
- IC50 [2]: 53 µM

Reference: US7956216B2, “Alpha-helical mimetics” (The Walter and Eliza Hall Institute of Medical Research, priority 2006, dated 2011)
